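All cell lines were grown in 96-well plates and treated with compound for 48 hours. At the TGI there is no net growth.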
How the values were obtained:
Assay in all cases: growth of human tumour cells (NCI), 48 h
NCI-H460 lung = system: NCI-H460 lung
MDA-N = system: MDA-N
NCI-H522 lung = system: NCI-H522 lung
CAKI-1 renal = system: CAKI-1 renal
A498 renal = system: A498 renal
HCT-116 colon = system: HCT-116 colon
OVCAR-3 ovarian = system: OVCAR-3 ovarian
SK-MEL-28 melanoma = system: SK-MEL-28 melanoma
CCRF-CEM leukemia = system: CCRF-CEM leukemia
NCI-H23 lung = system: NCI-H23 lung
HOP-62 NSCLC = system: HOP-62 NSCLC
SNB-75 CNS = system: SNB-75 CNS
TK-10 renal = system: TK-10 renal
SN12C renal = system: SN12C renal
OVCAR-5 ovarian = system: OVCAR-5 ovarian
SF-268 CNS = system: SF-268 CNS
T-47D breast = system: T-47D breast
BT-549 breast = system: BT-549 breast
U251 CNS = system: U251 CNS
EKVX NSCLC = system: EKVX NSCLC
OVCAR-8 ovarian = system: OVCAR-8 ovarian
SNB-19 CNS = system: SNB-19 CNS
SK-OV-3 ovarian = system: SK-OV-3 ovarian
SF-539 CNS = system: SF-539 CNS
A549 NSCLC = system: A549 NSCLC
SF-295 CNS = system: SF-295 CNS
COLO 205 colon = system: COLO 205 colon
UO-31 renal = system: UO-31 renal
786-0 renal = system: 786-0 renal
HCC-2998 colon = system: HCC-2998 colon
OVCAR-4 ovarian = system: OVCAR-4 ovarian
SK-MEL-2 melanoma = system: SK-MEL-2 melanoma
SK-MEL-5 melanoma = system: SK-MEL-5 melanoma
KM12 colon = system: KM12 colon
MCF7 breast = system: MCF7 breast
HCT-15 colon = system: HCT-15 colon
RPMI-8226 leukemia = system: RPMI-8226 leukemia
NCI-H226 lung = system: NCI-H226 lung
UACC-257 melanoma = system: UACC-257 melanoma
MDA-MB-231 breast = system: MDA-MB-231 breast
SW-620 colon = system: SW-620 colon
LOX IMVI melanoma = system: LOX IMVI melanoma
M14 melanoma = system: M14 melanoma
ACHN renal = system: ACHN renal
RXF 393 renal = system: RXF 393 renal
MALME-3M melanoma = system: MALME-3M melanoma
MDA-MB-435 = system: MDA-MB-435
NCI/ADR-RES ovarian = system: NCI/ADR-RES ovarian
PC-3 prostate = system: PC-3 prostate
DU-145 prostate = system: DU-145 prostate
UACC-62 melanoma = system: UACC-62 melanoma
K-562 leukemia = system: K-562 leukemia
IGROV1 ovarian = system: IGROV1 ovarian
HT29 colon = system: HT29 colon
HL-60(TB) leukemia = system: HL-60(TB) leukemia
MOLT-4 leukemia = system: MOLT-4 leukemia
SR leukemia = system: SR leukemia
HOP-92 NSCLC = system: HOP-92 NSCLC

## Cc1cc2nc3c(C#N)c(-c4ccccc4)/c(=C\Nc4ccc(Cl)cc4)c(=O)n3c2cc1C
NCI-H460 lung
  TGI: > 100 µM
MDA-N
  TGI: > 100 µM
NCI-H522 lung
  TGI: > 100 µM
CAKI-1 renal
  TGI: > 100 µM
A498 renal
  TGI: > 100 µM
HCT-116 colon
  TGI: > 100 µM
OVCAR-3 ovarian
  TGI: > 100 µM
SK-MEL-28 melanoma
  TGI: > 100 µM
CCRF-CEM leukemia
  TGI: > 100 µM
NCI-H23 lung
  TGI: > 100 µM
HOP-62 NSCLC
  TGI: > 100 µM
SNB-75 CNS
  TGI: > 100 µM
TK-10 renal
  TGI: > 100 µM
SN12C renal
  TGI: > 100 µM
OVCAR-5 ovarian
  TGI: > 100 µM
SF-268 CNS
  TGI: > 100 µM
T-47D breast
  TGI: > 100 µM
BT-549 breast
  TGI: > 100 µM
U251 CNS
  TGI: > 100 µM
EKVX NSCLC
  TGI: > 100 µM
OVCAR-8 ovarian
  TGI: > 100 µM
SNB-19 CNS
  TGI: > 100 µM
SK-OV-3 ovarian
  TGI: > 100 µM
SF-539 CNS
  TGI: > 100 µM
A549 NSCLC
  TGI: > 100 µM
SF-295 CNS
  TGI: > 100 µM
COLO 205 colon
  TGI: > 100 µM
UO-31 renal
  TGI: > 100 µM
786-0 renal
  TGI: > 100 µM
HCC-2998 colon
  TGI: > 100 µM
OVCAR-4 ovarian
  TGI: > 100 µM
SK-MEL-2 melanoma
  TGI: > 100 µM
SK-MEL-5 melanoma
  TGI: > 100 µM
KM12 colon
  TGI: > 100 µM
MCF7 breast
  TGI: > 100 µM
HCT-15 colon
  TGI: > 100 µM
RPMI-8226 leukemia
  TGI: > 100 µM
NCI-H226 lung
  TGI: > 100 µM
UACC-257 melanoma
  TGI: > 100 µM
MDA-MB-231 breast
  TGI: > 100 µM
SW-620 colon
  TGI: > 100 µM
LOX IMVI melanoma
  TGI: > 100 µM
M14 melanoma
  TGI: > 100 µM
ACHN renal
  TGI: > 100 µM
RXF 393 renal
  TGI: > 100 µM
MALME-3M melanoma
  TGI: > 100 µM
MDA-MB-435
  TGI: > 100 µM
NCI/ADR-RES ovarian
  TGI: > 100 µM
PC-3 prostate
  TGI: > 100 µM

## CCCCOCn1c(=O)[nH]c(=O)c2ccccc21
NCI-H460 lung
  TGI: > 100 µM
MDA-N
  TGI: > 100 µM
DU-145 prostate
  TGI: > 100 µM
UACC-62 melanoma
  TGI: > 100 µM
CAKI-1 renal
  TGI: > 100 µM
A498 renal
  TGI: > 100 µM
HCT-116 colon
  TGI: > 100 µM
OVCAR-3 ovarian
  TGI: > 100 µM
SK-MEL-28 melanoma
  TGI: > 100 µM
CCRF-CEM leukemia
  TGI: > 100 µM
SNB-75 CNS
  TGI: 82.9 µM
TK-10 renal
  TGI: > 100 µM
SN12C renal
  TGI: > 100 µM
K-562 leukemia
  TGI: > 100 µM
OVCAR-5 ovarian
  TGI: > 100 µM
IGROV1 ovarian
  TGI: > 100 µM
U251 CNS
  TGI: > 100 µM
EKVX NSCLC
  TGI: > 100 µM
OVCAR-8 ovarian
  TGI: > 100 µM
SNB-19 CNS
  TGI: 55.5 µM
SK-OV-3 ovarian
  TGI: > 100 µM
SF-539 CNS
  TGI: > 100 µM
A549 NSCLC
  TGI: > 100 µM
HT29 colon
  TGI: > 100 µM
SF-295 CNS
  TGI: > 100 µM
COLO 205 colon
  TGI: > 100 µM
HL-60(TB) leukemia
  TGI: > 100 µM
MOLT-4 leukemia
  TGI: > 100 µM
UO-31 renal
  TGI: 46.7 µM
786-0 renal
  TGI: > 100 µM
SR leukemia
  TGI: > 100 µM
OVCAR-4 ovarian
  TGI: > 100 µM
SK-MEL-2 melanoma
  TGI: > 100 µM
SK-MEL-5 melanoma
  TGI: > 100 µM
KM12 colon
  TGI: > 100 µM
MCF7 breast
  TGI: > 100 µM
HCT-15 colon
  TGI: > 100 µM
NCI-H226 lung
  TGI: > 100 µM
UACC-257 melanoma
  TGI: > 100 µM
MDA-MB-231 breast
  TGI: > 100 µM
SW-620 colon
  TGI: > 100 µM
LOX IMVI melanoma
  TGI: > 100 µM
M14 melanoma
  TGI: > 100 µM
ACHN renal
  TGI: > 100 µM
RXF 393 renal
  TGI: > 100 µM
HOP-92 NSCLC
  TGI: > 100 µM
MDA-MB-435
  TGI: > 100 µM
NCI/ADR-RES ovarian
  TGI: > 100 µM

— PubChem BioAssay (NCI)
